The nature of the series: Storage of concentrated MB-102 salt solution at 4° C. (precipitation). The format is physicochemical. The conditions noted are these: 64.2 wt % solution in water, 4° C. for 7 days. As for the experimental part: MB-102 (0.300 g, 0.81 mmol), was placed in a vial (4.0 mL). Water was added (0.8 mL, D.I.) and the mixture sonicated for a brief period of time. To the mixture was added aqueous 6.25 N NaOH (2 equivalents, 1.62 mmol, 0.24 mL, added in portions; 0.020 mL×12 to effect solution) with stirring and brief periods of sonication. […] The final concentration was 300 mg (2R,2′R)-2,2′-((3,6-diaminopyrazine-2,5-dicarbonyl)bis(azanediyl))bis(3-hydroxypropanoic acid), MB-102 per mL water (w/v).
MB-102 (0.30 g, 0.81 mmol) was weighed into a 5 mL v-vial equipped with a Teflon-covered magnetic spin vane. Choline hydroxide in water (Aldrich, 0.43 g of 46 wt %, 1.62 mmol) was added portion-wise with stirring until a solution was obtained. The total weight of the solution was 0.73 g or 64.2 wt % MB-102 di-choline salt (MW: 578.6).

Turning to `C[N+](C)(C)CCO.C[N+](C)(C)CCO.Nc1nc(C(=O)NC(CO)C(=O)[O-])c(N)nc1C(=O)NC(CO)C(=O)[O-]` (stereo not shown) [MB-102 di-choline salt], the precipitation on storage result was “no precipitation”.
